Data taken from US20240228488A1 (TAKEDA PHARMACEUTICAL COMPANY LIMITED, priority 2021, published 2024).

Columns and labels:
[1] = target: T1, plasma kallikrein (Homo sapiens, UniProt P03952); assay: Neat human plasma assay, FXIIa contact pathway-activated, PFR-AMC substrate; type: biochemical; conditions: citrated human plasma 78% final, 10 nM human FXIIa, 100 μM PFR-AMC; read-out: Human Plasma Assay: IC90
T1 construct: from tissue
Summary of the method: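 Citrated human plasma (78% final) with compound, contact-activated by 10 nM human FXIIa in pKal buffer pH 7.5, with 100 μM PFR-AMC. Fluorescence (360/480 nm) followed 5 min at room temperature; rates versus concentration fitted by 4-parameter equation for IC50/IC90.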

[2] = target: human activated kallikrein enzyme (Homo sapiens, UniProt P03952); assay: Plasma kallikrein inhibition, fluorogenic PFR-AMC substrate, 500 pM activated kallikrein format; type: biochemical; conditions: 500 pM activated kallikrein, 300 uM PFR-AMC, 30 min preincubation, 10 min reaction; read-out: Primary Dose Response Assay: Average EC50
Sequence of human activated kallikrein enzyme (P03952 391-638 limits assumed): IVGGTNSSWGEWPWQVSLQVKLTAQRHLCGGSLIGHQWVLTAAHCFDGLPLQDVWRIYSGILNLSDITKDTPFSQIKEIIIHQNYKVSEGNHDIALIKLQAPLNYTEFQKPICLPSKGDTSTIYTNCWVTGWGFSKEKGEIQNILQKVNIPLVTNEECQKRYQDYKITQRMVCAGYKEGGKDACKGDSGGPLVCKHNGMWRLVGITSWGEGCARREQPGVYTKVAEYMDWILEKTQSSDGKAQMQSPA
Sequence of human activated kallikrein enzyme (P03952 20-390 partner limits assumed): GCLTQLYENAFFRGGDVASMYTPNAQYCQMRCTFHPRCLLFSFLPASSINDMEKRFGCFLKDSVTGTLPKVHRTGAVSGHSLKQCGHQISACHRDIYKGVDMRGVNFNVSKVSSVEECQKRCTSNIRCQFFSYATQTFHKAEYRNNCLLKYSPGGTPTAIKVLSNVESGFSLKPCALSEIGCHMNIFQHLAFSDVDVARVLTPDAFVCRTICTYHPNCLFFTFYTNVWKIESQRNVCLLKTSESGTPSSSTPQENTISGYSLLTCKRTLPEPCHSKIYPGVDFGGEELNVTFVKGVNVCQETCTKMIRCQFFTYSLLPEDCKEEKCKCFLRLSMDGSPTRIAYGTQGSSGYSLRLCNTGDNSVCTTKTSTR
Summary of the method: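 Enzyme at 500 pM preincubated 30 min RT with inhibitors in 20 mM Tris pH 7.5, 1 mM EDTA, 150 mM NaCl, 0.1% PEG-400, 0.1% Triton X-100. Reaction started with 300 uM PFR-AMC, run 10 min RT; fluorescence read at 460 nm emission, 380 nm excitation. EC50 reported in ranges.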

T1 sequence (P03952 391-638 limits assumed): as the sequence (P03952 391-638 limits assumed) above
T1 sequence (P03952 20-390 partner limits assumed): as the sequence (P03952 20-390 partner limits assumed) above

Row | IC90 [1] [nM] | EC50 [2] [nM] | SMILES
1 | 400 to 1500 | < 1 | CN1C(=O)CN(c2cc(C3CC3)cn3cc(CN(C)c4cnnc(NC(=O)[C@H]5C[C@@H]5c5cccc(Cl)c5)c4)nc23)C1=O [Example I-641, (1S,2S)-2-(3-chlorophenyl)-N-(5-(((6-cyclopropyl-8-(3-methyl-2,4-dioxoimidazolidin-1-yl)imidazo[1,2-a]pyridin-2-yl)methyl)(methyl)amino)pyridazin-3-yl)cyclopropane-1-carboxamide]
2 | 1500 to 10000 | 1 to 10 | CN1CCN(c2cc(C3CC3)cn3cc(COc4ccnc(NC(=O)[C@H]5C[C@@H]5c5cccc(Cl)c5)c4)nc23)CC1 [Example 565, (1S,2S)-2-(3-chlorophenyl)-N-(4-((6-cyclopropyl-8-(4-methylpiperazin-1-yl)imidazo[1,2-a]pyridin-2-yl)methoxy)pyridin-2-yl)cyclopropane-1-carboxamide]
3 | 1500 to 10000 | < 1 | O=C(Nc1cc(NCc2cn3cc(C4CC4)cc(N4CC(=O)N(C5CC5)C4=O)c3n2)ccn1)[C@H]1C[C@@H]1c1cccc(Cl)c1 [Example 513, (1S,2S)-2-(3-chlorophenyl)-N-(4-(((6-cyclopropyl-8-(3-cyclopropyl-2,4-dioxoimidazolidin-1-yl)imidazo[1,2-a]pyridin-2-yl)methyl)amino)pyridin-2-yl)cyclopropane-1-carboxamide]
4 | 10000 to 48000 | < 1 | COc1ccc(C#N)c([C@H]2C[C@@H]2C(=O)Nc2cc(NCc3cn4cc(C5CC5)ccc4n3)ccn2)c1 (single isomer, unassigned) [Example I-224, rac-(1S*,2S*)-2-(2-cyano-5-methoxyphenyl)-N-(4-(((6-cyclopropylimidazo[1,2-a]pyridin-2-yl)methyl)amino)pyridin-2-yl)cyclopropane-1-carboxamide]
5 | < 400 | < 1 | Cc1ccnc([C@H]2C[C@@H]2C(=O)Nc2cc(OCc3cn4cc(C5CC5)cc(N5CC6(COC6)OC5=O)c4n3)nc(C)n2)n1 [Example 553, (1S,2S)-N-(6-((6-cyclopropyl-8-(6-oxo-2,5-dioxa-7-azaspiro[3.4]octan-7-yl)imidazo[1,2-a]pyridin-2-yl)methoxy)-2-methylpyrimidin-4-yl)-2-(4-methylpyrimidin-2-yl)cyclopropane-1-carboxamide]
6 | 400 to 1500 | < 1 | CN(C)C1CCN(c2cc(C3CC3)cn3cc(CNc4cc(NC(=O)[C@H]5C[C@@H]5c5cccc(Cl)c5)ncn4)nc23)C1=O (stereo partly drawn) [Example I-17, (1S,2S)-2-(3-chlorophenyl)-N-(6-(((6-cyclopropyl-8-(3-(dimethylamino)-2-oxopyrrolidin-1-yl)imidazo[1,2-a]pyridin-2-yl)methyl)amino)pyrimidin-4-yl)cyclopropane-1-carboxamide]
7 | < 400 | < 1 | Cc1ccnc([C@H]2C[C@@H]2C(=O)Nc2cc(NCc3cn4cc(C5CC5)cc(N5CC(=O)N(C)C5=O)c4n3)ccn2)n1 (racemic) [Example I-208, rac-(1S*,2S*)-N-(4-(((6-cyclopropyl-8-(3-methyl-2,4-dioxoimidazolidin-1-yl)imidazo[1,2-a]pyridin-2-yl)methyl)amino)pyridin-2-yl)-2-(4-methylpyrimidin-2-yl)cyclopropane-1-carboxamide]
8 | 400 to 1500 | < 1 | O=C(Nc1cc(NCc2cn3cc(C4CC4)cc(N4CCN5CCC4C5)c3n2)ccn1)[C@H]1C[C@@H]1c1cccc(Cl)c1 (stereo partly drawn) [Example I-23, (1S,2S)-N-(4-(((8-(1,4-diazabicyclo[3.2.1]octan-4-yl)-6-cyclopropylimidazo[1,2-a]pyridin-2-yl)methyl)amino)pyridin-2-yl)-2-(3-chlorophenyl)cyclopropane-1-carboxamide]
9 | 400 to 1500 | < 1 | CN1CC(=O)N(c2cc(C3CC3)cn3cc(CNc4cc(NC(=O)[C@H]5C[C@@H]5c5cccc(Cl)c5)ncn4)nc23)CC1=O [Example 404, (1S,2S)-2-(3-chlorophenyl)-N-(6-(((6-cyclopropyl-8-(4-methyl-2,5-dioxopiperazin-1-yl)imidazo[1,2-a]pyridin-2-yl)methyl)amino)pyrimidin-4-yl)cyclopropane-1-carboxamide]
10 | 400 to 1500 | < 1 | O=C1CN(c2cc(C3CC3)cn3cc(CNc4cc(NC(=O)[C@H]5C[C@@H]5c5cccc(Cl)c5)ncn4)nc23)C(=O)N1 [Example 396, (1S,2S)-2-(3-chlorophenyl)-N-(6-(((6-cyclopropyl-8-(2,4-dioxoimidazolidin-1-yl)imidazo[1,2-a]pyridin-2-yl)methyl)amino)pyrimidin-4-yl)cyclopropane-1-carboxamide]

Further lines, the compound ahead of its results:

Row | SMILES | IC90 [1] [nM] | EC50 [2] [nM]
11 | Cc1ccnc([C@H]2C[C@@H]2C(=O)Nc2cc(N(C)Cc3cn4cc(C5CC5)cc(N5CC(=O)N(CC(C)(C)O)C5=O)c4n3)nc(C)n2)n1 [Example 359, (1S,2S)-N-(6-(((6-cyclopropyl-8-(3-(2-hydroxy-2-methylpropyl)-2,4-dioxoimidazolidin-1-yl)imidazo[1,2-a]pyridin-2-yl)methyl)(methyl)amino)-2-methylpyrimidin-4-yl)-2-(4-methylpyrimidin-2-yl)cyclopropane-1-carboxamide] | 400 to 1500 | < 1
12 | Cc1ccnc([C@H]2C[C@@H]2C(=O)Nc2cc(NCc3cn4cc(C5CC5)ccc4n3)ccn2)n1 (racemic) [Example 414, rac-(1S*,2S*)-N-(4-(((6-cyclopropylimidazo[1,2-a]pyridin-2-yl)methyl)amino)pyridin-2-yl)-2-(4-methylpyrimidin-2-yl)cyclopropane-1-carboxamide] | 10000 to 48000 | < 1
13 | Cc1ccnc([C@H]2C[C@@H]2C(=O)Nc2cc(NCc3cn4cc(C5CC5)cc(N5CC(=O)N(CC(=O)O)C5=O)c4n3)ncn2)n1 [Example 465] | 400 to 1500 | < 1
14 | Cc1ccnc([C@H]2C[C@@H]2C(=O)Nc2cc(NCc3cn4cc(C5CC5)cc(N5C(=O)N(C)C(=O)C56CC6)c4n3)nc(C)n2)n1 [Example 357, (1S,2S)-N-(6-(((6-cyclopropyl-8-(6-methyl-5,7-dioxo-4,6-diazaspiro[2.4]heptan-4-yl)imidazo[1,2-a]pyridin-2-yl)methyl)amino)-2-methylpyrimidin-4-yl)-2-(4-methylpyrimidin-2-yl)cyclopropane-1-carboxamide] | < 400 | < 1
15 | CCN(Cc1cn2cc(C3CC3)cc(N3CC(=O)N(C)C3=O)c2n1)c1cc(NC(=O)[C@H]2C[C@@H]2c2nccc(C)n2)nc(C)n1 [Example 360, (1S,2S)-N-(6-(((6-cyclopropyl-8-(3-methyl-2,4-dioxoimidazolidin-1-yl)imidazo[1,2-a]pyridin-2-yl)methyl)(ethyl)amino)-2-methylpyrimidin-4-yl)-2-(4-methylpyrimidin-2-yl)cyclopropane-1-carboxamide] | 400 to 1500 | 1 to 10
16 | Cc1ccnc([C@H]2C[C@@H]2C(=O)Nc2nc(NCc3cn4cc(C5CC5)cc(N5CC(=O)N(C)C5=O)c4n3)nc(C3CC3)n2)n1 (racemic) [Example 523, rac-(1S*,2S*)-N-(4-cyclopropyl-6-(((6-cyclopropyl-8-(3-methyl-2,4-dioxoimidazolidin-1-yl)imidazo[1,2-a]pyridin-2-yl)methyl)amino)-1,3,5-triazin-2-yl)-2-(4-methylpyrimidin-2-yl)cyclopropane-1-carboxamide] | < 400 | < 1
17 | Cc1ccnc([C@@H]2[C@@H](C(=O)Nc3cc(NCc4cn5cc(C6CC6)cc(N6CC(=O)N(C)C6=O)c5n4)ncn3)C2(F)F)n1 (racemic) [Example 494, rac-(1S*,3S*)-N-(6-(((6-cyclopropyl-8-(3-methyl-2,4-dioxoimidazolidin-1-yl)imidazo[1,2-a]pyridin-2-yl)methyl)amino)pyrimidin-4-yl)-2,2-difluoro-3-(4-methylpyrimidin-2-yl)cyclopropane-1-carboxamide] | < 400 | < 1
